Like-named read-outs stand apart in the source and are kept apart here.
Columns and labels:
[1] = molecular target: T1, human ETA receptors (Homo sapiens, UniProt P25101); test: Binding Test #1: inhibition of 125I-endothelin-1 binding to ETA receptors (TE 671 cell membranes)
T1 construct: endogenous in cells; host or cells: TE 671 cells (ATCC HTB 139), membrane preparation
T1 sequence (P25101 21-427): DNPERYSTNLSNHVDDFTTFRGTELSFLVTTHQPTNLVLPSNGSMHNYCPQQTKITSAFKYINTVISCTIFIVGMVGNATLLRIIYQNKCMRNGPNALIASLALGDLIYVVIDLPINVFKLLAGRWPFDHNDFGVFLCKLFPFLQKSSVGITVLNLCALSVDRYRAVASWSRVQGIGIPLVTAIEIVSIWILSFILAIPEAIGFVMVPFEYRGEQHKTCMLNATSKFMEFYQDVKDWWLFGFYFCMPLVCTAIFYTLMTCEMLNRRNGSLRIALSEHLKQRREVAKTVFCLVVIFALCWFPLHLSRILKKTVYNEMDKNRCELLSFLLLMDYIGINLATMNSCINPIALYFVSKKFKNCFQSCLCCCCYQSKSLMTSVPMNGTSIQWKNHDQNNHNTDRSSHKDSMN
Text: (§1) Compounds that are potential endothelin antagonists are identified by testing their ability to compete with ^125I-labeled ET-1 for binding to human ETA receptors or ETB receptors present on isolated cell membranes. The effectiveness of the test compound as an antagonist or agonist of the biological tissue response of endothelin can also be assessed by measuring the effect on endothelin induced contraction of isolated rat thoracic aortic rings. The ability of the compounds to act as antagonists or agonists for ETB receptors can be assessed by testing the ability of the compounds to inhibit endothelin-1 induced prostacyclin release from cultured bovine aortic endothelial cells.
TE 671 cells (ATCC Accession No. HTB 139) express ETA receptors. These cells were grown to confluence in T-175 flasks. Cells from multiple flasks were collected by scraping, pooled and centrifuged for 10 min at 190×g. The cells were resuspended in phosphate buffered saline (PBS) containing 10 mM EDTA using a Tenbroeck homogenizer. The suspension was centrifuged at 4° C. at 57,800×g for 15 min, the pellet was resuspended in 5 ml of buffer A (5 mM HEPES buffer, pH 7.4 containing aprotinin (100 KIU/ml)) and then frozen and thawed once. 5 ml of Buffer B (5 mM HEPES Buffer, pH 7.4 containing 10 mM MnCl2 and 0.001% deoxyribonuclease Type 1) was added, the suspension mixed by inversion and then incubated at 37° C. for 30 minutes. The mixture was centrifuged at 57,800×g as described above, the pellet washed twice with buffer A and then resuspended in buffer C (30 mM HEPES buffer, pH 7.4 containing aprotinin (100 KIU/ml) to give a final protein concentration of 2 mg/ml and stored at −70° C. until use.
The membrane suspension was diluted with binding buffer (30 mM HEPES buffer, pH 7.4 containing 150 mM NaCl, 5 mM MgCl2, 0.5% Bacitracin) to a concentration of 8 μg/50 μl. ^125I-endothelin-1 (3,000 cpm, […]) was added to 50 μL of either: (A) endothelin-1 (for non specific binding) to give a final concentration 80 nM); (B) binding buffer for total binding); or (C) a test compound (final concentration 1 nM to 100 μM). The membrane suspension (50 μL), containing up to 8 μg of membrane protein, was added to each of (A), (B), or (C). Mixtures were shaken, and incubated at 4° C. for 16-18 hours, and then centrifuged at 4° C. for 25 min at 2,500×g. Alternatively, the incubation can be conducted at other temperatures, such as 24° C. When incubated at 24° C., the IC50 concentrations are 2- to 10-fold higher than when the incubation is conducted at 4° C.
The supernatant, containing unbound radioactivity, was decanted and the pellet counted on a Genesys multiwell gamma counter. The degree of inhibition of binding (D) was calculated according to the following equation: [formula]
Each test was generally performed in triplicate.

[2] = molecular target: T2, human ETB receptor (Homo sapiens, UniProt P24530); test: Binding Test #2: inhibition of 125I-endothelin-1 binding to ETB receptors (transfected COS7 cell membranes)
T2 construct: expressed in transfected cells; host or cells: COS7 cells, membrane preparation
T2 sequence (P24530 27-442): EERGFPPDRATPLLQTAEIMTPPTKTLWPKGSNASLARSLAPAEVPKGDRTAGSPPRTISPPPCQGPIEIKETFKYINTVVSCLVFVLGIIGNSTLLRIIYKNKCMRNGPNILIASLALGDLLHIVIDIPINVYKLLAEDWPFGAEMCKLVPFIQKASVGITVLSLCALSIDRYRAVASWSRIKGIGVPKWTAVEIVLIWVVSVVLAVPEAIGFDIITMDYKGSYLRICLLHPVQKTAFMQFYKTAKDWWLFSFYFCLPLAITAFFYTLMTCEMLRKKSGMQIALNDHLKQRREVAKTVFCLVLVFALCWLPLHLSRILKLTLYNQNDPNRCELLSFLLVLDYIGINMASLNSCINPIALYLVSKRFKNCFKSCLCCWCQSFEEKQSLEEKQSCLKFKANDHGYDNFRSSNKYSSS
Text: as §1
COS7 cells were transfected with DNA encoding the ETB receptor, The resulting cells, which express the human ETB receptor, were grown to confluence in T-150 flasks. Membrane was prepared as described above. The binding assay was performed as described above using the membrane preparation diluted with binding buffer to a concentration of 1 μg/50 μl.
Briefly, the COS7 cells, described above, that had been transfected with DNA encoding the ETB receptor and express the human ETB receptor on their surfaces were grown to confluence in T-175 flasks. Cells from multiple flasks were collected by scraping, pooled and centrifuged for 10 min at 190×g. The cells were resuspended in phosphate buffered saline (PBS) containing 10 mM EDTA using a Tenbroeck homogenizer. The suspension was centrifuged at 4° C. 57,800×g for 15 min, the pellet was resuspended in 5 ml of buffer A (5 mM HEPES buffer, pH 7.4 containing aprotinin (100 KIU/ml)) and then frozen and thawed once. Five ml of Buffer B (5 mM HEPES Buffer, pH 7.4 containing 10 mM MnCl2 and 0.001% deoxyribonuclease Type 1) was added, the suspension mixed by inversion and then incubated at 37° C. for 30 minutes. The mixture was centrifuged at 57,800×g as described above, the pellet washed twice with buffer A and then resuspended in buffer C (30 mM HEPES buffer, pH 7.4 containing aprotinin (100 KIU/ml) to give a final protein concentration of 2 mg/ml.
The binding assay was performed as described above using the membrane preparation diluted to give 1 μg/50 μl of binding buffer.

[3] = system: ETA and ETB receptors; test: Summary statements on IC50 for ETA and ETB receptors / endothelin antagonist activity; assay type: binding, human; details: ETA versus ETB
Text: as §1
The membrane suspension was diluted with binding buffer (30 mM HEPES buffer, pH 7.4 containing 150 mM NaCl, 5 mM MgCl2, 0.5% Bacitracin) to a concentration of 8 μg/50 μl. ^125I-endothelin-1 (3,000 cpm, […]) was added to 50 μL of either: (A) endothelin-1 (for non specific binding) to give a final concentration 80 nM); (B) binding buffer for total binding); or (C) a test compound (final concentration 1 nM to 100 μM). The membrane suspension (50 μL), containing up to 8 μg of membrane protein, was added to each of (A), (B), or (C). […]
The IC50 for each of the compounds of the preceding Examples for ETA and ETB receptors has been measured. […]

[4] = molecular target: ETA receptor; details: read-out: IC50, inhibition of 125I-labelled endothelin-1 binding, cited from earlier work
[5] = system: ETB receptors; details: concentrations up to 100 μM; cited from earlier work
[6] = system: isolated vascular strips; details: read-out: EC50, contractile agent; cited from earlier work
[7] = incubation at 4° C., results generally from 1, 2, or 3 experiments, read-out: ETA (μM) IC50
[8] = incubation at 4° C., results generally from 1, 2, or 3 experiments, read-out: ETB (μM) IC50

With `Cc1noc(NP(=O)(Oc2ccccc2)Oc2ccccc2)c1Br` [N-(4-bromo-3-methyl-5-isoxazolyl)diphenylphosphoramidate] the IC50 [1] was 0.58 µM, the IC50 [2] was 77 µM and the “IC50 for ETA receptors substantially less than for ETB receptors (selectivity)” value [3] was 10 to 100 fold.
In the case of “cyclo(D-Glu-L-Ala-allo-D-lle-L-Leu-D-Trp) [BE-18257B]”, the IC50 ([4]; aortic smooth muscle) is given as 1400 nM, the IC50 ([4]; cultured aortic smooth muscle cells) is given as 500 nM and the IC50 ([4]; ventricle membranes) is given as 800 nM. The “inhibition of binding to receptors in tissues in which ETB receptors predominate” value [5] was “fails to inhibit binding”.
In the case of “endothelin-1: potent twenty-one amino acid peptide vasoconstrictor”, the EC50 [6] is given as 0.4 nM.
`Cc1noc(NP(=O)(Oc2ccccc2)Oc2ccccc2)c1C` [N-(3,4-dimethyl-5-isoxazolyl)diphenylphosphoramidate] gave an IC50 [1] of 2.5 µM and an IC50 [2] of over 100 µM.
For `CCOP(=O)(Nc1onc(C)c1Br)OCC` [N-(4-bromo-3-methyl-5-isoxazolyl)diethylphosphoramidate], the IC50 [1] was 20 µM and the IC50 [2] was over 100 µM.
In the case of `Cc1noc(NP(=O)(c2ccccc2)c2ccccc2)c1Br` [N-(4-bromo-3-methyl-5-isoxazolyl)diphenylphosphinic Amide], the IC50 [1, 7] is reported as 0.84 µM and the IC50 [2, 8] is reported as 85 µM.
`Cc1noc(NP(=O)(c2ccccc2)c2ccccc2)c1C` [N-(3,4-dimethyl-5-isoxazolyl)diphenylphosphinic Amide] gave an IC50 [1, 7] of 7.1 µM and an IC50 [2, 8] of over 100 µM.

Source: US6384261B1, “Phosphoramidates, phosphinic amides and related compounds and the use thereof to modulate the activity of endothelin” (Texas Biotechnology Corporation, priority 1996, dated 2002)
